From US20260028584A1, “METHOD FOR EVALUATING AGGREGATION-SUPPRESSING ACTIVITY OR AGGREGATION-PROMOTING ACTIVITY ON AGGREGATING PROTEIN USING ORGANOID, AND METHOD FOR PRODUCING ORGANOID” (KANEKA CORPORATION, priority 2023, published 2026)

Target: T1, amyloid β protein (QD-Aβ / Aβ42) deposited on and/or in cerebral organoid (Homo sapiens, UniProt P05067)
T1 construct: To a reagent bottle of Aβ1-42 0.5 mg (manufactured by Peptide Institute, Inc.: Cat No. 4394v); purchased Peptide Institute, Inc. 4394v; host or cells: synthetic peptide, added to the culture of a cerebral organoid derived from human iPS cells (HPS08554)
Test: Aβ deposition suppression on cerebral organoid with quantum dot-modified amyloid β (QD-Aβ), fluorescence image analysis
Type: cell-based
Conditions: rosmarinic acid 50 μM; QD-Aβ 30 nM, artificial Aβ 10 μM; human iPS cell-derived cerebral organoid; 24 hours at 37° C.
Experimental: An end of a tip for 1000 μL was cut with sterilized scissors, and the organoid grown to a diameter of 1 mm or larger prepared in Example 1 was sucked so as not to collapse, and transferred to a U-bottom 96-well plate. […]
The next day, the culture supernatant was completely removed so as not to suck the organoid, and after 150 μL of a fresh NbM medium was added, the cultured organoid was observed and photographed using a fluorescence microscope.
Using a fluorescent microscope (BZ-X800 manufactured by Keyence Corporation), the cultured organoid in Example 2 was photographed in a bright field at high resolution with an exposure time of 1/500 s to 1/2000 s, or at high sensitivity with an exposure time of 1/2000 s to 1/5000 s, using a Z stack with 20 μm intervals. […] Thereafter, in order to observe the deposition of quantum dot-modified amyloid β on the cultured organoid, red fluorescence was observed using a TRITC lens at high sensitivity with an exposure time of ¼ s to 1/8.5 s, and images were obtained according to the above procedure.
Each of the images obtained above was analyzed as follows. Specifically, the hybrid cell count function was used to read the organoid images used in the various tests, select the bright field, and then set the extraction selection to OFF. The threshold of the read bright-field images was set to 200, and the organoid area was calculated (organoid surface area). […]

T1 sequence (P05067 672-713): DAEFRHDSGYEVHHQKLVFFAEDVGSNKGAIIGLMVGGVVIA

Aβ deposition suppression rate: less than 5.0%
Structure (SMILES): O=C(/C=C/c1ccc(O)c(O)c1)O[C@H](Cc1ccc(O)c(O)c1)C(=O)O [rosmarinic acid, Rosmarinic acid]
